Some test systems named below: BT-549 breast; HOP-62 NSCLC; UO-31 renal; T-47D breast; SNB-75 CNS; MCF7 breast; A498 renal; KM12 colon; CCRF-CEM leukemia; EKVX NSCLC.
Common to all, as to assay: NCI anticancer screen, dose series, 48 h

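Five concentrations, 48 hours, 96-well plates. GI50: concentration for 50% inhibition of growth. At the TGI there is no net growth.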

Consider `CCc1ccc(Nc2cc(C)c3ccc(O)cc3n2)cc1`, for which the GI50 in the assay with BT-549 breast was 4.48 µM; with HOP-62 NSCLC, 11.5 µM; in the assay on UO-31 renal it was 4.54 µM; in the assay on T-47D breast, 4.83 µM; with SNB-75 CNS it was 11.3 µM; in the assay with MCF7 breast, 4.75 µM. For the same molecule, the figures for the GI50 in the assay with A498 renal and with KM12 colon were 16.6 µM and 6.01 µM, respectively. In addition, the TGI with BT-549 breast was found to be 16.3 µM; in the assay on HOP-62 NSCLC, 24.3 µM; in the assay on UO-31 renal, 23 µM; with T-47D breast it was 23.3 µM; in the assay with SNB-75 CNS, 24.8 µM; in the assay with MCF7 breast it was 22.4 µM. Besides, the TGI with A498 renal stood at 30.6 µM; in the assay with KM12 colon it was 21.2 µM.

With `CNCc1ccc(-c2cc(-c3nc(-c4ccc(S(=O)(=O)C(C)C)cc4)cnc3N)on2)cc1`, the GI50 is 2.04 µM in the assay on BT-549 breast; 4.56 µM in the assay on HOP-62 NSCLC; 1.35 µM in the assay on UO-31 renal; 15.7 µM in the assay on T-47D breast; 11.4 µM in the assay with SNB-75 CNS; 0.0946 µM in the assay with MCF7 breast. Besides, the results for the GI50 with CCRF-CEM leukemia and in the assay with KM12 colon were 0.215 µM and 1.87 µM, respectively. The TGI with BT-549 breast stood at 30.4 µM; with HOP-62 NSCLC, 22.6 µM; with UO-31 renal, 14 µM; in the assay on T-47D breast, 37.8 µM; with SNB-75 CNS, 26.4 µM; with MCF7 breast, 1.82 µM. The TGI with A498 renal was found to be 2.03 µM; in the assay with CCRF-CEM leukemia, 3.42 µM; in the assay with KM12 colon, 12.6 µM.

As for `COc1ccc(Nc2cnc3cc(N)cc(N)c3n2)cc1`, the GI50 in the assay with EKVX NSCLC was 22 µM; in the assay on HOP-62 NSCLC it was 24.4 µM; in the assay with UO-31 renal it was 25.7 µM; in the assay on T-47D breast, 27 µM; in the assay with MCF7 breast, 18.4 µM; in the assay with A498 renal, 16.9 µM. Moreover, the GI50 is 14.8 µM with CCRF-CEM leukemia and 18.4 µM in the assay with KM12 colon. Also, the TGI in the assay with EKVX NSCLC is 42.6 µM; in the assay with HOP-62 NSCLC, 51.9 µM; in the assay on UO-31 renal, 98.5 µM; with T-47D breast, 75.5 µM; with MCF7 breast, 40.9 µM; in the assay on A498 renal, 59.1 µM. Also, the TGI amounted to 89.7 µM in the assay with CCRF-CEM leukemia and 36.2 µM in the assay on KM12 colon.

For `O=C(c1cccs1)c1c(C(F)(F)F)n([O-])c2cc(Cl)c(Cl)cc2[n+]1=O`, the GI50 in the assay with EKVX NSCLC was 2.11 µM; in the assay on BT-549 breast, 0.975 µM; in the assay with HOP-62 NSCLC, 1.77 µM; with UO-31 renal, 1.9 µM; in the assay with T-47D breast it was 2.18 µM; in the assay with MCF7 breast, 0.0762 µM. The figures for the GI50 with A498 renal, with CCRF-CEM leukemia and with KM12 colon were 1.27 µM, under 0.0387 µM and 0.517 µM, respectively. In addition, the TGI was 4.04 µM with EKVX NSCLC; 2.52 µM with BT-549 breast; 3.46 µM with HOP-62 NSCLC; 4.14 µM with UO-31 renal; 4.94 µM in the assay with T-47D breast; 1.17 µM in the assay with MCF7 breast. For the same molecule, the values for the TGI with A498 renal, in the assay with CCRF-CEM leukemia and in the assay with KM12 colon were 2.61 µM, 0.0617 µM and 1.08 µM, respectively.

`CSc1nc2nc(-c3ccccc3)c(C)c-2c2n1C(C)C(=O)N2` (stereo not given): the GI50 in the assay with EKVX NSCLC is 65.7 µM; in the assay on BT-549 breast, 50.3 µM; with HOP-62 NSCLC, 44.7 µM; with UO-31 renal, 18.3 µM; in the assay on T-47D breast, 29.8 µM; in the assay with SNB-75 CNS it was 43.2 µM. Moreover, the GI50 was 25.8 µM with MCF7 breast, 32.2 µM with A498 renal and 47.7 µM in the assay on KM12 colon. Moreover, the TGI with EKVX NSCLC, with BT-549 breast, in the assay on HOP-62 NSCLC, in the assay with UO-31 renal, in the assay on T-47D breast and in the assay on SNB-75 CNS was over 100 µM in each case. Moreover, the TGI in the assay with MCF7 breast, in the assay with A498 renal and with KM12 colon was over 100 µM throughout.

In the case of `COc1cc(-c2nccc3[nH]c(-c4ccc5cc[nH]c5c4)nc23)cc(OC)c1OC`, the GI50 in the assay with BT-549 breast is under 0.01 µM; in the assay with HOP-62 NSCLC it was under 0.01 µM; with UO-31 renal it was under 0.01 µM; in the assay with T-47D breast, 1.26 µM; in the assay on SNB-75 CNS, under 0.01 µM; in the assay on MCF7 breast, 0.0568 µM. Besides, the GI50 in the assay on CCRF-CEM leukemia and in the assay with KM12 colon was under 0.01 µM in each case. The TGI was determined as 2.71 µM with BT-549 breast; 2.67 µM in the assay on HOP-62 NSCLC; 2.93 µM with UO-31 renal; 4.38 µM in the assay with T-47D breast; 6.6 µM in the assay with SNB-75 CNS; 2.87 µM in the assay on MCF7 breast. Also, the TGI is 12.2 µM in the assay with CCRF-CEM leukemia and 1.5 µM in the assay with KM12 colon.

As for `COCCOC1=C(Cl)C(=O)c2ccccc2C1=O`, the GI50 is 3.51 µM with EKVX NSCLC; 3.2 µM with BT-549 breast; 3.92 µM with HOP-62 NSCLC; 3.07 µM in the assay on UO-31 renal; 2.75 µM in the assay with SNB-75 CNS; 3.06 µM in the assay on MCF7 breast. Moreover, the GI50 is 4.35 µM in the assay with A498 renal and 2.11 µM in the assay on KM12 colon. Besides, the TGI in the assay on EKVX NSCLC came out at 15.8 µM; in the assay with BT-549 breast, 10.6 µM; in the assay on HOP-62 NSCLC it was 14.8 µM; in the assay with UO-31 renal it was 16 µM; in the assay on SNB-75 CNS it was 10.1 µM; in the assay on MCF7 breast it was 14.7 µM. Also, the TGI in the assay on A498 renal came to 18.2 µM; with KM12 colon it was 4.23 µM.

Turning to `COc1ccccc1Oc1nccc(-c2c(-c3ccc(F)cc3)ncn2C2CCNCC2)n1`, the GI50 is over 25 µM in the assay on EKVX NSCLC; over 23.6 µM with BT-549 breast; over 25 µM in the assay on HOP-62 NSCLC; 6.86 µM in the assay with UO-31 renal; over 25 µM in the assay with T-47D breast; over 16.6 µM in the assay on SNB-75 CNS. The GI50 with MCF7 breast was 16 µM; in the assay with A498 renal it was over 25 µM; in the assay on KM12 colon, over 25 µM. For the same molecule, the TGI in the assay with EKVX NSCLC, in the assay with BT-549 breast, in the assay on HOP-62 NSCLC, with UO-31 renal, in the assay on T-47D breast and in the assay on SNB-75 CNS was over 25 µM each time. For the same molecule, the TGI with MCF7 breast, with A498 renal and in the assay on KM12 colon was over 25 µM each time.

Source of the values: PubChem BioAssay (NCI).
